# Assays:
# [1] = tested on: Trichophyton mentagrophytes 833; design: method as in Tamai, S., et al., J. Antibiot., 1982, 35, 1130-1136; conditions: Table S4; ref Tamai, S., et al., J. Antibiot., 1982, 35, 1130-1136; cited from earlier work
# [2] = tested on: Trichophyton asteroides 429; design: method as in Tamai, S., et al., J. Antibiot., 1982, 35, 1130-1136; conditions: Table S4; ref Tamai, S., et al., J. Antibiot., 1982, 35, 1130-1136; cited from earlier work
# [3] = tested on: DAUDI cell line; design: method as in Cribiu, R., et al., Angew. Chem. Int. Ed. 2009, 48, 8780–8783; conditions: Table S4; ref Cribiu, R., et al., Angew. Chem. Int. Ed. 2009, 48, 8780–8783; cited from earlier work
# [4] = tested on: HL-60 cell line; design: method as in Cribiu, R., et al., Angew. Chem. Int. Ed. 2009, 48, 8780–8783; conditions: Table S4; ref Cribiu, R., et al., Angew. Chem. Int. Ed. 2009, 48, 8780–8783; cited from earlier work
# [5] = tested on: Caco-2 cell monolayers; assay: Efflux-inhibited permeability across Caco-2 cell monolayers; type: in vitro ADME
# [6] = tested on: DNA gyrase B; design: method as in earlier work; conditions: Table S4, ref Brvar, M., et al., Bioorg. Med. Chem. Lett. 2010, 20, 3, 958–962 & Boehm, H. J., J. Med. Chem. 2000, 43, 14, 2664-2674; cited from earlier work
structure (smiles),measurement,setting,value
Oc1ccc2cc1Oc1ccc(cc1)CC1CNC(CN1)C2 (stereo not drawn) [Piperazinomycin],Inhibition of Trichophyton mentagrophytes 833,[1],Inhibition
same,Inhibition of Trichophyton asteroides 429,[2],Inhibition
CC=CCC=CC(C)CC(O)C1CC2OC2C=CC(O)C(O)C=CCC(C)CC(=O)O1 (stereo not drawn) [Iriomoteolide 3a],Antiproliferative activity vs DAUDI cell line,[3],Antiproliferative activity
same,Antiproliferative activity vs HL-60 cell line,[4],Antiproliferative activity
"CC(=O)N1CCC[C@H]1C(=O)N[C@@H]1COC(=O)c2ccccc2CSC[C@H](C(=O)N(C)C)NC1=O [Compound 14, (4S,7R)-7-((S)-1-Acetylpyrrolidine-2-carboxamido)-N,N-dimethyl-6,10-dioxo-1,3,4,5,6,7,8,10-octahydrobenzo[j][1]oxa[8]thia[5]azacyclododecine-4-carboxamide]",permeability across Caco-2 cell monolayers (in words),[5],low-to-moderate
Cc1c(O)cc(O)c2c1C(=O)OCC(NC(=O)C1C(O)CCN1C(=O)C(N)CO)C(=O)NC(C(=O)NC(C)C(=O)O)CSC2 (stereo not drawn) [Cyclothialidine],DNA gyrase B ATPase activity,[6],Inhibition

# From paper PMC7872424, “Mining Natural Products for Macrocycles to Drug Difficult Targets” (Journal of Medicinal Chemistry, 2020)
